Data: patent US10695366B2 (ZS PHARMA, INC., priority 2013, dated 2020)

System: beagles
Details: dog, in vivo
Experimental: The following 14-day study is designed to show the effect of particle size and particle form on the urinary pH and presence of crystals in the urine. The compounds above are administered to beagles orally by mixing with wet dog food. The regimen is administered 3 times a day at 6 hour intervals over a 12 hour period in the following manner:
The dose levels were 100 or 600 mg/kg/dose.

## microporous zirconium silicate [ZS-9]
  test article-related findings (direct or indirect), microscopic: not present
